The values below come from US20110105514A1, “5,6,7,8-TETRAHYDRO-IMIDAZO[1,5-A]PYRAZINE COMPOUNDS” (priority 2008, published 2011).

Structures are written as SMILES. Like-named read-outs stand apart in the source and are kept apart here.

One may read the IC50 as the concentration that gives 50% inhibition.

In test [1] the target is T1, human orexin-1 receptor (Homo sapiens, UniProt O43613).
T1 construct: expressed in transfected cells; host or cells: Chinese hamster ovary (CHO) cells
T1 sequence (O43613 1-425): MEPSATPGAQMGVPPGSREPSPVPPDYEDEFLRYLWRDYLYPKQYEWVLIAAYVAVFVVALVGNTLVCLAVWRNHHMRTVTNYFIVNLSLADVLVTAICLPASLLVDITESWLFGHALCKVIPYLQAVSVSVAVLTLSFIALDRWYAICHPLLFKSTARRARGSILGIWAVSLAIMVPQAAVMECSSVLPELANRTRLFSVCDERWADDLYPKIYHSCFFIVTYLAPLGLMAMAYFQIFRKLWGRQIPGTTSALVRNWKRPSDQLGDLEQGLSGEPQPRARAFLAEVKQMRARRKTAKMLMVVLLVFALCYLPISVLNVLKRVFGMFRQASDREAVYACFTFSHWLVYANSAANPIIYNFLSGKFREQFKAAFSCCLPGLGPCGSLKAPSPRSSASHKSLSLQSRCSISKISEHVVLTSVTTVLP
Description: FLIPR calcium assay of orexin receptor antagonistic activity, CHO cells expressing the human orexin-1 receptor. Format: cell-based. To be noted: 3 nM orexin-A as agonist. Here is the method: (§1) The orexin receptor antagonistic activity of the compounds of formula (I) is determined in accordance with the following experimental method.
(§2) Chinese hamster ovary (CHO) cells expressing the human orexin-1 receptor and the human orexin-2 receptor, respectively, are grown in culture medium (Ham F-12 with L-Glutamine) containing 300 μg/ml G418, 100 U/ml penicillin, 100 μg/ml streptomycin and 10% heat inactivated fetal calf serum (FCS). The cells are seeded at 20′000 cells/well into 384-well black clear bottom sterile plates (Greiner). The seeded plates are incubated overnight at 37° C. in 5% CO2.
(§3) Human orexin-A as an agonist is prepared as 1 mM stock solution in MeOH:water (1:1), diluted in HBSS containing 0.1% bovine serum albumin (BSA), NaHCO3: 0.375 g/l and 20 mM HEPES for use in the assay at a final concentration of 3 nM.
(§4) Antagonists are prepared as 10 mM stock solution in DMSO, then diluted in 384-well plates using DMSO followed by a transfer of the dilutions into in HBSS containing 0.1% bovine serum albumin (BSA), NaHCO3: 0.375 g/l and 20 mM HEPES. On the day of the assay, 50 μl of staining buffer (HBSS containing 1% FCS, 20 mM HEPES, NaHCO3: 0.375 g/l, 5 mM probenecid (Sigma) and 3 μM of the fluorescent calcium indicator fluo-4 AM (1 mM stock solution in DMSO, containing 10% pluronic) is added to each well. The 384-well cell-plates are incubated for 50 min at 37° C. in 5% CO2 followed by equilibration at RT for 30-120 min before measurement.
(§5) Within the Fluorescent Imaging Plate Reader (FLIPR Tetra, Molecular Devices), antagonists are added to the plate in a volume of […], incubated for 10 min and finally […] of agonist is added. Fluorescence is measured for each well at 1 second intervals, and the height of each fluorescence peak is compared to the height of the fluorescence peak induced by 3 nM orexin-A with vehicle in place of antagonist. For each antagonist, the IC50 value (the concentration of compound needed to inhibit 50% of the agonistic response) is determined and may be normalized using the obtained IC50 value of a on-plate reference compound (normalized values in Table 1 indicated by an asterisk*).
(§6) The calculated IC50 values of the compounds may fluctuate depending on the daily cellular assay performance. Fluctuations of this kind are known to those skilled in the art.

Test [2] addresses T2, human orexin-2 receptor (Homo sapiens, UniProt O43614).
T2 construct: expressed in transfected cells; host or cells: Chinese hamster ovary (CHO) cells
T2 sequence (O43614 1-444): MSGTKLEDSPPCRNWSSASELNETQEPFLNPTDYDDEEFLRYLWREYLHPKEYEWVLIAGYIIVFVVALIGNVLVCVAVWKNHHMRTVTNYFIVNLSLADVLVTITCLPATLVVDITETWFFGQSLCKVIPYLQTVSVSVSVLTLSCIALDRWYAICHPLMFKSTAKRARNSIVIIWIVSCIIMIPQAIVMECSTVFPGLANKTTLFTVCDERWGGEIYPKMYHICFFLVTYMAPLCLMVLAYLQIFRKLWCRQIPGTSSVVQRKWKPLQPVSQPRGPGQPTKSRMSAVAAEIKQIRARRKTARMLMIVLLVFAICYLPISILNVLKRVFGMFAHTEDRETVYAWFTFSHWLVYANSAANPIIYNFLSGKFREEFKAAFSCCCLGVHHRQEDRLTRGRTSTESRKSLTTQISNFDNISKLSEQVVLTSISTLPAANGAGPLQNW
Description: FLIPR calcium assay of orexin receptor antagonistic activity, CHO cells expressing the human orexin-2 receptor. In kind it is cell-based. Particulars: 3 nM orexin-A as agonist. Here is the method: as §1, §2, §3, §4, §5, §6

Test [3] concerns rat. Particulars: rat model; cited from earlier work.
Test [4] concerns rat. To be noted: cited from earlier work.
For test [5], the system named is rat. Particulars: cited from earlier work. This is another data set of the same source.
Where [6] appears, read: normalized using IC50 of on-plate reference compound (asterisk), read-out: OX1 IC50 (in nM), normalized value.
[7] abbreviates: normalized using IC50 of on-plate reference compound (asterisk), read-out: OX2 IC50 (in nM), normalized value.
Where [8] appears, read: value not normalized, read-out: OX1 IC50.
Setting [9] is: value not normalized, read-out: OX2 IC50.

In the case of `CCOc1nc(C(F)(F)F)c2n1CCN([C@@H](C(=O)NC)c1ccccc1)[C@H]2CCc1ccc(C(F)(F)F)cc1` [Example 21, (R)-2′-{3-ethoxy-1-trifluoromethyl-(S)-8-[2-(4-trifluoromethyl-phenyl)-ethyl]-5,6-dihydro-8H-imidazo[1,5-a]pyrazin-7-yl}-N-methyl-2′-phenyl-acetamide], the values for the IC50 in test [1] (setting [6]) and in test [2] (setting [7]) were 3540 nM and 63 nM, respectively.
Take `CNC(=O)[C@@H](c1ccccc1)N1CCn2c(SC)nc(Cl)c2[C@@H]1CCc1ccc(C(F)(F)F)c(F)c1F` [Example 8, (R)-2′-{1-chloro-(8)-8-[2-(2,3-difluoro-4-trifluoromethyl-phenyl)-ethyl]-3-methylsulfanyl-5,6-dihydro-8H-imidazo[1,5-a]pyrazin-7-yl}-N-methyl-2′-phenyl-acetamide]: the values for the IC50 in test [1] (setting [8]) and in test [2] (setting [9]) were 56 nM and 21 nM, respectively.
Taken in the same sequence, the figures for `CNC(=O)[C@@H](c1ccccc1)N1CCn2c(C(F)(F)F)nc(C)c2[C@@H]1CCc1ccc(C(F)(F)F)cc1` [Example 13a, N-methyl-(R)-2′-{1-methyl-3-trifluoromethyl-(S)-8-[2-(4-trifluoromethyl-phenyl)-ethyl]-5,6-dihydro-8H-imidazo[1,5-a]pyrazin-7-yl}-2′-phenyl-acetamide] were 259 nM and 8 nM.
With `CNC(=O)[C@@H](c1ccccc1)N1CCc2cc(OC)c(OC)cc2[C@@H]1CCc1ccc(C(F)(F)F)cc1` [(2R)-2-{(1S)-6,7-dimethoxy-1-[2-(4-trifluoromethyl-phenyl)-ethyl]-3,4-dihydro-1H-isoquinolin-2-yl}-N-methyl-2-phenyl-acetamide], the memory function result in test [3] is given as “enhance memory function”. For the same compound, in test [4], the “alertness (active wake and locomotion)” value was “decrease alertness”; the “time spent in both REM and NREM sleep” value is “dose-dependently increase the time spent in both REM and NREM sleep”. In addition, the “activity in post-traumatic stress disorder model” value in test [5] was “active”.
`CNC(=O)[C@@H](c1ccccc1)N1CCn2c(C3CC3)nc(Cl)c2[C@@H]1CCc1ccc(Cl)c(F)c1` [Example 3, (R)-2′-{1-chloro-(S)-8-[2-(4-chloro-3-fluoro-phenyl)-ethyl]-3-cyclopropyl-5,6-dihydro-8H-imidazo[1,5-a]pyrazin-7-yl}-N-methyl-2′-phenyl-acetamide]: the half-maximal inhibitory concentration (IC50) in test [1] (setting [8]) was 43 nM; in test [2] (setting [9]), 11 nM.
`CCc1nc(C2CC2)n2c1C(CCc1ccc(C(F)(F)F)c(F)c1)N(C(C(=O)NC)c1ccccc1)CC2` [Example 17, (R)-2′-{3-cyclopropyl-1-ethyl-(8)-8-[2-(3-fluoro-4-trifluoromethyl-phenyl)-ethyl]-5,6-dihydro-8H-imidazo[1,5-a]pyrazin-7-yl}-N-methyl-2′-phenyl-acetamide]: the results for the IC50 in test [1] (setting [6]) and in test [2] (setting [7]) were 384 nM and 8 nM, respectively.
As for `CCc1nc(Cl)c2n1CCN([C@@H](C(=O)NC)c1ccccc1)[C@H]2CCc1cccc(OC(F)F)c1` [Example 11, (R)-2′-{1-chloro-(S)-8-[2-(3-difluoromethoxy-phenyl)-ethyl]-3-ethyl-5,6-dihydro-8H-imidazo[1,5-a]pyrazin-7-yl}-N-methyl-2′-phenyl-acetamide], the IC50 in test [1] (setting [8]) worked out at 45 nM; in test [2] (setting [9]) it was 2 nM.
`CCc1nc(S(C)(=O)=O)c2n1CCN([C@@H](C(=O)NC)c1ccccc1)[C@H]2CCc1ccc(C(F)(F)F)cc1` [Example 23, (R)-2′-{3-ethyl-1-methanesulfonyl-(S)-8-[2-(4-trifluoromethyl-phenyl)-ethyl]-5,6-dihydro-8H-imidazo[1,5-a]pyrazin-7-yl}-N-methyl-2′-phenyl-acetamide]: the IC50 in test [1] (setting [6]) stood at 1680 nM; in test [2] (setting [7]), 25 nM.
Turning to `CCc1nc(C(F)(F)F)n2c1[C@H](CCc1ccc(C(F)(F)F)cc1)N([C@@H](C(=O)NC)c1ccccc1)CC2` [Example 28, (R)-2′-{1-ethyl-3-trifluoromethyl-(8)-8-[2-(4-trifluoromethyl-phenyl)-ethyl]-5,6-dihydro-8H-imidazo[1,5-a]pyrazin-7-yl}-N-methyl-2′-phenyl-acetamide], the results for the IC50 in test [1] (setting [6]) and in test [2] (setting [7]) were 505 nM and 13 nM, respectively.
On the same counts, the results for `CNC(=O)[C@@H](c1ccccc1)N1CCn2c(C3CC3)nc(Cl)c2[C@@H]1CCc1cccc(C(F)(F)F)c1` [Example 26, (R)-2′-{1-chloro-3-cyclopropyl-(S)-8-[2-(3-trifluoromethyl-phenyl)-ethyl]-5,6-dihydro-8H-imidazo[1,5-a]pyrazin-7-yl}-N-methyl-2′-phenyl-acetamide] are 91 nM and 7 nM.
